Measurements published in patent US8318767B2, “Substituted imidazoles as bombesin receptor subtype-3 modulators” (Merck Sharp & Dohme Corp, priority 2006, dated 2012).

Each compound was assayed against T1, human BRS-3 (Homo sapiens, UniProt P32247) (assay: Bombesin Receptor Subtype 3 (BRS3) radioligand binding assay). Conditions: selected compounds.
T1 construct: expressed in transfected cells
T1 sequence (P32247 1-399): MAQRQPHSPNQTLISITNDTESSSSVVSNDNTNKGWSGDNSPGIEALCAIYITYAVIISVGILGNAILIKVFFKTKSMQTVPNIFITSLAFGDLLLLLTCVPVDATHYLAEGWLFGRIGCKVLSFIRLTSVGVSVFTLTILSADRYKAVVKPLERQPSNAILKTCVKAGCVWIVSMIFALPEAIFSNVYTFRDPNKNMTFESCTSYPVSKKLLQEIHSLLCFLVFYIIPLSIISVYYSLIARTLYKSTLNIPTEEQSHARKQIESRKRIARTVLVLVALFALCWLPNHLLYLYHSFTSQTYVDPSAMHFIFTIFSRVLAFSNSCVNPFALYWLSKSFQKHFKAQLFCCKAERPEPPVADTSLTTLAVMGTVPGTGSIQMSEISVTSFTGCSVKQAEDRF
Protocol: Human embryonic kidney (HEK 293) cells expressing human BRS-3 were cultured to confluence and harvested by aspirating the culture medium and rinsing twice with 1×PBS without Mg^++ and Ca^++. Cellstriper Solution (Cellgrow #25-056-C1, 3 mL) was added to each T-175 flask until all cells dissociated and then an additional 15 mL 1×PBS without Mg^++ and Ca^++ were added to each flask. Dissociated cells were collected by centrifuging at 1000 rpm for 10 minutes. Cell pellets were resuspended and homogenized at 4° C. using a Polytron homogenizer (setting 40, 20 stokes) in approximately 10 mL membrane preparation buffer (10 mM Tris pH 7.4, 0.01 mM Pefabloc, 10 μM phosphoramidon and 40 μg/mL Bacitracin) per T175 flask. After centrifugation at 2200 rpm (1000×g) for 10 minutes at 4° C., the supernatant was transferred to a clean centrifuge tube and spun at 18,000 rpm (38,742×g) for 15 minutes. at 4° C. Membranes were resuspended in the above membrane preparation buffer (1 mL/T-175 flask), homogenized, aliquoted, quickly frozen in liquid nitrogen and stored at −80° C.
For the [^125I]-[D-Tyr^6,β-Ala^11,Phe^13,Nle^14]-Bombesin(6-14), “[^125I]-dY-peptide”, radioligand assay the specific binding of [^125I]-dY-peptide to human BRS3 was measured by filtration assay in 96-well plate format. The receptor membrane (2 μg/well) in binding buffer (50 mM Tris pH 7.4, 5 mM MgCl2, 0.1% BSA and protease inhibitor cocktail) was mixed with compound in DMSO (1% final concentration) and 30 pM [^125I]-dY-peptide. After incubation for 1-2 hours at room temperature, membrane-bound [^125I]-dY-peptide was separated from free [^125I]-dY-peptide by filtering through GF/C filters presoaked in 1% PEI solution. The filters were washed five times with ice-cold washing buffer (1×PBS without Mg^++ and Ca^++). The radioactivity was determined by adding 30 μl of microscintillant/well after each plate was dried at room temperature overnight or placed at 50° C. for 1 hr.
The radioligand, [^3H]-1-{4-[(4,5-difluoro-2-hydroxycarbonylphenyl)phenyl]}-2-(4-cyclohexylmethyl-1H-imidazol-2-yl)ethane, was used for binding to receptor membranes generated with BRS3 from rat and mouse and was also utilized for the human receptor. Cell membranes (5 to 20 μg/well) were added to binding buffer (25 mM Tris pH 7.4, 10 mM MgCl2, 2 mM EDTA and protease I cocktail) containing compound in DMSO (1% final concentration) and 660 pM [^3H]-biphenyl. After incubation for 1-2 hours at room temperature, membrane bound [^3H]-biphenyl was separated from free radiologand by filtering through GF/C filters presoaked in 1% PEI solution. The filters were washed five times with ice-cold washing buffer (50 mM Tris pH 7.4, 10 mM MgCl2, 2.5 mM EDTA and 0.02% Triton X-100). The radioactivity was determined by adding 30 μl of microscintillant/well after each plate was dried at room temperature overnight or placed at 50° C. for 1 hr.
A Packard Top Count was used to read the filter plates. The data in % inhibition of binding was plotted vs. the log molar concentration of receptor ligand (compound). The IC50 was reported as the inflection point of the resulting sigmoidal curve.
The binding assays for the rat and mouse Bombesin Receptor Subtype 3 (BRS3) were performed in a similar fashion.
An NFATCHO cell line stably expressing human BRS3 cDNA was generated using standard cell biology techniques and used to prepare receptor membranes for the human “[^125I]-dY-peptide binding assay. The cell line was cultured in T175 flasks in Iscove's Modified Dulbecco's Medium with L-glutamine and 25 mM HEPES buffer (Gibco #12440-046) supplemented with 10% FBS (cat#SH30070.03, Hyclone, Logan, Utah), 1×HT Supplement (0.1 mM Sodium Hypoxanthine and 16 μM Thymidine Gibco #11067-030), 2 mM L-glutamine (Gibco #25030-081), 100 units/mL Penicillin-G and 100 μg/mL Streptomycin (Gibco #15140-122) and 1 mg/mL Geneticin (Gibco #10131-027).

CCC(C)(C)Cc1c[nH]c(C(Cc2ccc(-c3ccc(F)cn3)cc2)NC)n1 (single isomer, unassigned) [Example 6, 1-[4-(2,2-dimethylbutyl)-1H-imidazol-2-yl]-2-[4-(5-fluoropyridin-2-yl)phenyl]-N-methylethanamine] and CC(=O)NC(Cc1ccc(-c2ccc(F)cn2)cc1)c1nc(CC(C)(C)C)c[nH]1 (stereo not drawn) [Example 9, N-{1-[4-(2,2-dimethylpropyl)-1H-imidazol-2-yl]-2-[4-(5-fluoropyridin-2-yl)phenyl]ethyl}acetamide] are within 1.5-fold of each other in IC50: 285 nM for the first, 220 nM for the second.

Compared with CCC(C)(C)Cc1c[nH]c(C2(Cc3ccc(-c4ccc(F)cn4)cc3)CCCN2)n1 (stereo not drawn) [Example 55, 2-[4-({2-[4-(2,2-dimethylbutyl)-1H-imidazol-2-yl]pyrrolidin-2-yl}methyl)phenyl]-5-fluoropyridine], CCC(C)(C)Cc1c[nH]c(C(C)(O)Cc2ccc(-c3ccc(F)cn3)cc2)n1 (stereo not drawn) [Example 29, 2-[4-(2,2-dimethylbutyl)-1H-imidazol-2-yl]-1-[4-(5-fluoropyridin-2-yl)phenyl]propan-2-ol] is 11-fold higher in IC50: 5.1 nM for the first, 58 nM for the second. The first is the more potent here.

Compared with CC(C)(C)Cc1c[nH]c(C(O)Cc2ccc(-c3ccccn3)cc2)n1 (stereo not drawn) [Example 1, 1-[4-(2,2-dimethylpropyl)-1H-imidazol-2-yl]-2-(4-pyridin-2-ylphenyl)ethanol], CCNC(Cc1ccc(-c2ccccn2)cc1)c1nc(CC(C)(C)C)c[nH]1 (stereo not drawn) [Example 3, 1-[4-(2,2-dimethylpropyl)-1H-imidazol-2-yl]-N-ethyl-2-(4-pyridin-2-ylphenyl)ethanamine] is 2-fold higher in IC50: 120 nM for the first, 245 nM for the second.

Compared with CC(C)(C)Cc1c[nH]c(C(C)(O)Cc2ccc(-c3ccc(F)cn3)cc2)n1 (stereo not drawn) [Example 15, 2-[4-(2,2-dimethylpropyl)-1H-imidazol-2-yl]-1-[4-(5-fluoropyridin-2-yl)phenyl]propan-2-ol], CC(C)(C)Cc1c[nH]c(C(O)Cc2ccc(-c3ccc(F)cn3)cc2)n1 (stereo not drawn) [Example 18, 1-[4-(2,2-dimethylpropyl)-1H-imidazol-2-yl]-2-[4-(5-fluoropyridin-2-yl)phenyl]ethanol] is 1.7-fold lower in IC50: 190 nM for the first, 110 nM for the second. The second is the more potent here.

With CC(C)(C)Cc1c[nH]c(C(C)(O)Cc2ccc(-n3cccn3)cc2)n1 (stereo not drawn) [Example 33, 2-[4-(2,2-dimethylpropyl)-1H-imidazol-2-yl]-1-[4-(1H-pyrazol-1-yl)phenyl]propan-2-ol] the IC50 was 195 nM.
